According to paper PMC8151276, “An Integrated Approach toward NanoBRET Tracers for Analysis of GPCR Ligand Engagement” (Molecules, 2021):

Columns and labels:
Assay type in all cases: binding
CXCR1 = biological target: T1, CXCR1 (Homo sapiens, UniProt P25024); assay: NanoBRET screen HiBiT-CXCR1 in HEK293; settings: CXCR1
T1 construct: purchased Promega (in-house HiBiT-GPCR construct library, NanoBRET)
T1 sequence (P25024 1-350): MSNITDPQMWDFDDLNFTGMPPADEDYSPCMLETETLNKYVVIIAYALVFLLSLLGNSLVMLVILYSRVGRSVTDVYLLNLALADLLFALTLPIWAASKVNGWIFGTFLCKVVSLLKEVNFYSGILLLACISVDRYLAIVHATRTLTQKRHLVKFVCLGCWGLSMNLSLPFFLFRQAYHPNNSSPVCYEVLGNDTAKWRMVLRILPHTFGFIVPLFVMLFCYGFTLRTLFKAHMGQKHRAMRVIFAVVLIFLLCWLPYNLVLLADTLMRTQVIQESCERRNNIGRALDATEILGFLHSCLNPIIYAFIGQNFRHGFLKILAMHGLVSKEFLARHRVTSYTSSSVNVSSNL
Procedure: (§1) Each tracer candidate was screened across the entire library of HiBiT-GPCR constructs using NanoBRET as the detection modality. As depicted in Figure 4A, the specificity of interactions was evaluated through decrease in BRET due to competitive displacement of a bound tracer by excess parental compound. Each tracer was analyzed for binding to each HiBiT-GPCR fusion in the absence and in the presence of competing parental compound. Briefly, HEK293 cells were transfected with HiBiT-GPCR constructs diluted into promoterless DNA to reduce expression and maximize translocation to the cell surface. Each tracer candidate was then screened at concentrations of 1 μM and 0.1 μM across cells expressing these fusions. Cells were treated for 1.5 h with tracer either alone or in the presence of 20 μM competing parental compound (i.e., control). BRET was measured upon addition of purified LgBiT and subsequent complementation with HiBiT genetically fused to a GPCR. The specificity of interactions was assessed through a decrease in BRET signal due to competitive displacement of the bound tracer. To further gauge the robustness of these interactions, the fold response over the control (i.e., BRETtracer/BRETcontrol) was calculated. We chose a 1.5-fold response, which translates to ≥7-fold signal over noise as the minimal threshold required to score an interaction as positive. […]. Below we highlight the screening results obtained for our exemplary fluorescent tracers based on Clozapine, Amitriptyline and AZD1283.
(§2) HiBiT-GPCR DNA constructs were diluted in 10 mM Tris pH 8 to a final concentration of 0.01 μg/μL, arrayed in 96-well plates and stored at −20 °C. For transfection, HEK293 cells were suspended in Opti-MEM (without phenol red) supplemented with 2% fetal bovine serum (Seradigm) and 100 units/mL penicillin–streptomycin (Gibco) at a final concentration of 220,000 cells/mL and dispensed into white 96-well plates at 90 μL/well. Subsequent transfections and screens were carried using an Agilent Bravo Automated Liquid Handling Platform. First, the 96-well HiBiT DNA arrays were diluted 25-fold in Opti-MEM (without serum or phenol red) to a final concentration of 0.0004 μg/μL and 20 μL of the diluted DNAs were transferred into new 96-well plates. Next, promoterless carrier DNA (1 μg/μL) was diluted 25-fold (0.04 μg/μL) and then dispensed into the diluted arrays at 20 μL/well. Following brief mixing, Viafect transfection reagent (Promega) diluted 16-fold into Opti-MEM was dispensed into the plates at 40 μL/well. After mixing by pipetting, plates were incubated for 10 min on the pipetting station deck. The DNA-transfection reagent complexes were then added to plates containing cells. To facilitate the screen, 10 μL of DNA-transfection reagent complexes were added in duplicates to the top 4 and bottom 4 rows, resulting in two identical 48-well arrays per plate. Plates with transfected cells were incubated for 18–20 h at 37 °C/5% CO2. A screen of each tracer across the entire library using two different concentrations requires duplicate plates of transfected cells. Depending on the number of tracers being screened, transfections can be scaled up using the same ratios. The next day, for each tracer, four 20× screening solutions in tracer dilution buffer (Promega) were prepared: two duplicates at final concentration of 20 μM and two duplicates at a final concentration of 2 μM. A competing unmodified compound was added to one of each duplicate at a final concentration of 400 μM. The four resulting solutions were diluted 4-fold in Opti-MEM without serum or phenol red to generate 5× solutions (5 µM and 0.5 µM tracer +/− 100 μM competing compound). To screen the library, a BioTek MultiFlo FX liquid dispenser was used to dispense 22.5 µL of tracer solution to the top 4 rows and 22.5 µL tracer + competing compound solution to the 4 bottom rows. Plates were briefly mixed on an orbital shaker and incubated for 1.5 h at room temperature. […]

DRD5 = biological target: T2, DRD5 (Homo sapiens, UniProt P21918); assay: NanoBRET screen HiBiT-DRD5 in HEK293; settings: DRD5
T2 construct: purchased Promega (in-house HiBiT-GPCR construct library, NanoBRET)
Procedure: as §1, §2

FZD1 = biological target: T3, FZD1 (Homo sapiens, UniProt Q9UP38); assay: NanoBRET screen HiBiT-FZD1 in HEK293; settings: FZD1
T3 construct: purchased Promega (in-house HiBiT-GPCR construct library, NanoBRET)
Procedure: as §1, §2

HTR1D = biological target: T4, HTR1D (Homo sapiens, UniProt P28221); assay: NanoBRET screen HiBiT-HTR1D in HEK293; settings: HTR1D
T4 construct: purchased Promega (in-house HiBiT-GPCR construct library, NanoBRET)
Procedure: as §1, §2

TACR3 = biological target: T5, TACR3 (Homo sapiens, UniProt P29371); assay: NanoBRET screen HiBiT-TACR3 in HEK293; settings: TACR3
T5 construct: purchased Promega (in-house HiBiT-GPCR construct library, NanoBRET)
T5 sequence (P29371 1-465): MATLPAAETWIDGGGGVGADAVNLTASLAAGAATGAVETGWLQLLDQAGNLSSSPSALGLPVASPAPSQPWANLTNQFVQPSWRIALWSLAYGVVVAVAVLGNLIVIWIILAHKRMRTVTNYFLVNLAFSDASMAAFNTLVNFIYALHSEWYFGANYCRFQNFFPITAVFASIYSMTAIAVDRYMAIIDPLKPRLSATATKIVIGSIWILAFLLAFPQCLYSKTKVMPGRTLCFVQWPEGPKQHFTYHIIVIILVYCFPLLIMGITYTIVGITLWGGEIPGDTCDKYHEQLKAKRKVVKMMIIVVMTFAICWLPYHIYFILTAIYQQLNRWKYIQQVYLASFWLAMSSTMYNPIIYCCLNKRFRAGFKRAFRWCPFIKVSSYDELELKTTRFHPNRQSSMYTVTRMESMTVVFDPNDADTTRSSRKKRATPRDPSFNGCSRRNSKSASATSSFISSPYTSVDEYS
Procedure: as §1, §2

T2 sequence (P21918 whole entry): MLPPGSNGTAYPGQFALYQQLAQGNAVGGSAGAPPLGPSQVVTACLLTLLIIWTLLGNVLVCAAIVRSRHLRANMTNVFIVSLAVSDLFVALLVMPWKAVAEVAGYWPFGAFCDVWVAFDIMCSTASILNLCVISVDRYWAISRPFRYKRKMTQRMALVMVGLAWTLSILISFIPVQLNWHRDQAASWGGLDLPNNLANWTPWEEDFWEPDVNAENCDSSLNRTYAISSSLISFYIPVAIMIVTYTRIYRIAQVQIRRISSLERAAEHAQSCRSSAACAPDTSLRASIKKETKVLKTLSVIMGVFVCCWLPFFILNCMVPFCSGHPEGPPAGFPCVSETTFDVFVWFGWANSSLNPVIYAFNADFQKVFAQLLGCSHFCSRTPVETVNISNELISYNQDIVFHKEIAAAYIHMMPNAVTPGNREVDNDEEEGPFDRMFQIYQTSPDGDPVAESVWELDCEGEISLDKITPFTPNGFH
T3 sequence (Q9UP38 70-647): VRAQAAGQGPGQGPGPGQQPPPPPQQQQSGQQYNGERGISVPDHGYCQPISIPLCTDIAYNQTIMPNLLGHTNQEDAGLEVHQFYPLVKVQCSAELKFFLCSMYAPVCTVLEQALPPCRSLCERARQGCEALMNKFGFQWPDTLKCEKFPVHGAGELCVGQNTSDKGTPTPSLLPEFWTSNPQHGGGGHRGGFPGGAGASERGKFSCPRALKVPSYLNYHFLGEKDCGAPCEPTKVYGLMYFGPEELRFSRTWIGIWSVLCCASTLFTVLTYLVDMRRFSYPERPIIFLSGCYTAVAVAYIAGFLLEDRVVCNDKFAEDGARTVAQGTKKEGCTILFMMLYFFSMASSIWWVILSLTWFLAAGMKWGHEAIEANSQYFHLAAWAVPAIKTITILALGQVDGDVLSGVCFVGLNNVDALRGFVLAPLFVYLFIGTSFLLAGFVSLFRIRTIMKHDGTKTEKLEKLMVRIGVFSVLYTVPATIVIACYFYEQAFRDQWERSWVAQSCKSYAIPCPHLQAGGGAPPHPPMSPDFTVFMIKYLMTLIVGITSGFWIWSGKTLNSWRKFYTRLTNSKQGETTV
T4 sequence (P28221 whole entry): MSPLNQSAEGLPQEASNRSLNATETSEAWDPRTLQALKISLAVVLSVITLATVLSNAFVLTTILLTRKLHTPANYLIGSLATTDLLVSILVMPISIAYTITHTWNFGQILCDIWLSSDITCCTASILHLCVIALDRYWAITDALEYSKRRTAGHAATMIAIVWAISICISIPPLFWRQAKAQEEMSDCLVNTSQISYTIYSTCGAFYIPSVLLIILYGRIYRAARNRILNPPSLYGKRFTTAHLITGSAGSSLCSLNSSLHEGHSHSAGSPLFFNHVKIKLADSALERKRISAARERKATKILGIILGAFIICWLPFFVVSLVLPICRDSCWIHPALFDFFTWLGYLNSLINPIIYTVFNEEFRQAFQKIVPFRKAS

| SMILES | NanoBRET Fold Response (CXCR1; tracer 0.1μM) | NanoBRET Fold Response (CXCR1; tracer 1μM) | NanoBRET Fold Response (DRD5; tracer 0.1μM) | NanoBRET Fold Response (DRD5; tracer 1μM) | NanoBRET Fold Response (FZD1; tracer 0.1μM) | NanoBRET Fold Response (FZD1; tracer 1μM) | NanoBRET Fold Response (HTR1D; tracer 0.1μM) | NanoBRET Fold Response (HTR1D; tracer 1μM) | NanoBRET Fold Response (TACR3; tracer 0.1μM) | NanoBRET Fold Response (TACR3; tracer 1μM) | also measured |
| --- | --- | --- | --- | --- | --- | --- | --- | --- | --- | --- | --- |
| CN1CCN(C2=Nc3cc(Cl)ccc3Nc3ccc(CNC(=O)CCOCCOCCOCCOCCNC(=O)CCc4ccc5n4[B-](F)(F)[N+]4=C(c6ccc[nH]6)C=CC4=C5)cc32)CC1 [Clozapine-b-2-NB590] |  |  |  |  |  |  |  |  |  |  | NanoBRET Fold Response (CXCR1; 0.1μM tracer): 1.00; NanoBRET Fold Response (CXCR1; 1μM tracer): 0.99; NanoBRET Fold Response (DRD5; 0.1μM tracer): 1.01; NanoBRET Fold Response (DRD5; 1μM tracer): 1.83; NanoBRET Fold Response (FZD1; 0.1μM tracer): 1.00; NanoBRET Fold Response (FZD1; 1μM tracer): 0.99; NanoBRET Fold Response (HTR1D; 0.1μM tracer): 1.08; NanoBRET Fold Response (HTR1D; 1μM tracer): 1.48; NanoBRET Fold Response (TACR3; 0.1μM tracer): 1.01; NanoBRET Fold Response (TACR3; 1μM tracer): 1.05 |
| CN1CCN(C2=Nc3cc(Cl)ccc3N(CC(=O)NCCOCCOCCOCCOCCNC(=O)CCc3ccc4n3[B-](F)(F)[N+]3=C(c5ccc[nH]5)C=CC3=C4)c3ccccc32)CC1 [Clozapine-c-2-NB590] |  |  |  |  |  |  |  |  |  |  | NanoBRET Fold Response (CXCR1; 0.1μM tracer): 0.99; NanoBRET Fold Response (CXCR1; 1μM tracer): 0.94; NanoBRET Fold Response (DRD5; 0.1μM tracer): 0.98; NanoBRET Fold Response (DRD5; 1μM tracer): 1.16; NanoBRET Fold Response (FZD1; 0.1μM tracer): 1.02; NanoBRET Fold Response (FZD1; 1μM tracer): 1.06; NanoBRET Fold Response (HTR1D; 0.1μM tracer): 1.00; NanoBRET Fold Response (HTR1D; 1μM tracer): 1.00; NanoBRET Fold Response (TACR3; 0.1μM tracer): 1.00; NanoBRET Fold Response (TACR3; 1μM tracer): 1.00 |
| O=C(CCOCCOCCOCCOCCNC(=O)CCc1ccc2n1[B-](F)(F)[N+]1=C(c3ccc[nH]3)C=CC1=C2)NCCCN1CCN(C2=Nc3ccccc3Oc3ccc(Cl)cc32)CC1 [Loxapine-a-2-NB590] | 1.02 | 0.94 | 1.25 | 2.20 | 1.17 | 1.03 | 1.35 | 1.74 | 1.08 | 1.11 |  |
| COc1ccccc1N1CCN(CCCCN2C(=O)c3ccc(CNC(=O)CCOCCNC(=O)c4ccc(CNC(=O)CCc5ccc6n5[B-](F)(F)[N+]5=C(c7ccc[nH]7)C=CC5=C6)cc4)cc3C2=O)CC1 [NAN-190-3-NB590] | 0.93 | 0.83 | 1.05 | 1.42 | 0.83 | 1.01 | 1.11 | 1.70 | 0.97 | 0.96 |  |
| O=C(CCc1ccc2n1[B-](F)(F)[N+]1=C(c3ccc[nH]3)C=CC1=C2)NCc1ccc(C(=O)NCCOCCC(=O)N[C@@H]2CC[C@@]3(O)[C@H]4Cc5ccc(O)c6c5[C@@]3(CCN4CC3CC3)[C@H]2O6)cc1 [Naltrexone-3-NB590] | 0.95 | 0.75 | 1.25 | 1.07 | 1.07 | 1.05 | 0.53 | 0.94 | 1.19 | 0.93 |  |
| Cc1cc2c(s1)Nc1ccccc1N=C2N1CCN(CCCNC(=O)CCOCCOCCOCCOCCNC(=O)CCc2ccc3n2[B-](F)(F)[N+]2=C(c4ccc[nH]4)C=CC2=C3)CC1 [Olanzapine-a-2-NB590] | 1.00 | 0.99 | 1.20 | 2.53 | 0.95 | 1.04 | 1.03 | 1.29 | 1.00 | 0.95 |  |
| O=C(CCc1ccc2n1[B-](F)(F)[N+]1=C(c3ccc[nH]3)C=CC1=C2)NCc1ccc(C(=O)NCCOCCOCCNCC(O)COc2cccc3ccccc23)cc1 (stereo not shown) [Propranolol-3-NB590] |  |  |  |  |  |  |  |  |  |  | NanoBRET Fold Response (CXCR1; 0.1μM): 1.02; NanoBRET Fold Response (CXCR1; 1μM): 1.00; NanoBRET Fold Response (DRD5; 0.1μM): 1.03; NanoBRET Fold Response (DRD5; 1μM): 1.00; NanoBRET Fold Response (FZD1; 0.1μM): 0.97; NanoBRET Fold Response (FZD1; 1μM): 0.98; NanoBRET Fold Response (HTR1D; 0.1μM): 1.24; NanoBRET Fold Response (HTR1D; 1μM): 0.96; NanoBRET Fold Response (TACR3; 0.1μM): 1.06; NanoBRET Fold Response (TACR3; 1μM): 0.99 |
| O=C(CCc1ccc2n1[B-](F)(F)[N+]1=C(c3ccc[nH]3)C=CC1=C2)NCCOCCOCCNC(=O)OCCOCCN1CCN(C2=Nc3ccccc3Sc3ccccc32)CC1 [Quetiapine-a-2-NB590] | 0.98 | 0.95 | 1.09 | 1.43 | 1.14 | 0.96 | 1.02 | 1.32 | 1.04 | 0.83 |  |
| Cc1nc2n(c(=O)c1CCN1CCC(c3noc4cc(F)ccc34)CC1)CCCC2OC(=O)NCCOCCOCCOCCOCCNC(=O)CCc1ccc2n1[B-](F)(F)[N+]1=C(c3ccc[nH]3)C=CC1=C2 (stereo not shown) [Risperidone-2-NB590] | 1.01 | 0.91 | 1.92 | 2.44 | 1.02 | 1.00 | 1.38 | 1.86 | 1.04 | 1.10 |  |
| CC(C)N(CC[C@H](c1ccccc1)c1cc(CCNC(=O)CCOCCOCCOCCOCCNC(=O)CCc2ccc3n2[B-](F)(F)[N+]2=C(c4ccc[nH]4)C=CC2=C3)ccc1O)C(C)C [Tolterodine-2-NB590] | 1.27 | 1.06 | 1.01 | 1.04 | 0.97 | 0.97 | 1.35 | 0.68 | 1.11 | 1.08 |  |
